Test results: EP4813989A1, “CRYSTAL, PHARMACEUTICAL COMPOSITION, PREPARATION METHOD THEREFOR, AND USE THEREOF” (TYK Medicines, Inc., priority 2023, dated 2025)

Legend:
Type in all cases: physicochemical
[1] = Accelerated test, related substances by HPLC; settings: 40°C±2°C, 75%RH±5%RH; for Impurity content RRT0.55 / Impurity content RRT0.66 / Impurity content RRT0.71 / Impurity content RRT0.94 / Impurity content RRT1.02 / Impurity content RRT1.06 / Impurity content RRT1.08 / Impurity content RRT1.15 / Total impurities: open
Description: An investigation method for the accelerated test can be seen in Table 14 below.
Change results of related substances in each crystal form under the accelerated condition (40°C±2°C, 75%RH±5%RH) can be seen in Table 18.
HPLC detection results of related substances under the accelerated condition can be seen as follows: Table 18

[2] = Light exposure test, related substances by HPLC
Excerpt: An investigation method for the light exposure test can be seen in Table 13 below.
Results of related substances in each crystal form under the light exposure condition (4500lx±500lx) can be seen in Table 17.
HPLC detection results of related substances under the light exposure condition can be seen as follows: Table 17

[3] = High-humidity test, related substances by HPLC; settings: 90%RH±5%RH; for Impurity content RRT0.55 / Impurity content RRT0.66 / Impurity content RRT0.71 / Impurity content RRT0.94 / Impurity content RRT1.02 / Impurity content RRT1.06 / Impurity content RRT1.08 / Impurity content RRT1.15 / Total impurities: open
Excerpt: An investigation method for the high-humidity test can be seen in Table 12 below.
Results of related substances in each crystal form under the high-humidity condition (90%RH±5%RH) can be seen in Table 16.
HPLC detection results of related substances under the high-humidity condition can be seen as follows: Table 16

[4] = Flowability test (angle of repose)
Description: A flowability determination method was as follows: an angle of repose was determined by using a device composed of 2 to 3 funnels connected in series in a staggered manner, and drug powder was slowly and uniformly passed through the funnels onto a stationary base with a diameter d, so as to form a symmetric powder pile with a single layer of powder at the bottom. During the formation of the powder pile, a height of the funnels was maintained within 2-4 cm from a top of the powder pile, a height h of the cone was determined, and the angle of repose was calculated as tanθ=h/(d/2).

[5] = Dynamic vapor sorption (DVS) hygroscopicity
Description: Dynamic vapor sorption (DVS) was used to investigate hygroscopicities of an active pharmaceutical ingredient in different crystal forms.
Determination method: • instrument: dynamic vapor sorption analyzer; temperature: 25°C; protective gas and flow rate: N2, 200 mL/min; • dm/dt: 0.002%/min; RH range: 0%RH-100%RH; cycle: 1 full cycle.

C[C@@H](Nc1ccn2ncc(C3=NOC(C)(C)N3)c2n1)c1cc(F)cc(F)c1F [crystal form E]
Increase of impurity RRT1.08 content ([1]; 32 days): 0.03%
Impurity content RRT0.55 ([1]; 0 day): 0.04%
Impurity content RRT0.66 ([1]; 0 day): 0.21%
Impurity content RRT0.71 ([1]; 0 day): 0.14%
Impurity content RRT0.94 ([1]; 0 day): 0.03%
Impurity content RRT1.02 ([1]; 0 day): 0.21%
Impurity content RRT1.06 ([1]; 0 day): 0.07%
Impurity content RRT1.08 ([1]; 0 day): 0.17%
Impurity content RRT1.15 ([1]; 0 day): 0.03%
Total impurities ([1]; 0 day): 0.89%
Impurity content RRT0.55 ([1]; 5 days): 0.04%
Impurity content RRT0.66 ([1]; 5 days): 0.21%
Impurity content RRT0.71 ([1]; 5 days): 0.15%
Impurity content RRT0.94 ([1]; 5 days): 0.03%
Impurity content RRT1.02 ([1]; 5 days): 0.21%
Impurity content RRT1.06 ([1]; 5 days): 0.05%
Impurity content RRT1.08 ([1]; 5 days): 0.18%
Impurity content RRT1.15 ([1]; 5 days): 0.03%
Total impurities ([1]; 5 days): 0.89%
Impurity content RRT0.55 ([1]; 11 days): 0.04%
Impurity content RRT0.66 ([1]; 11 days): 0.21%
Impurity content RRT0.71 ([1]; 11 days): 0.15%
Impurity content RRT0.94 ([1]; 11 days): 0.02%
Impurity content RRT1.02 ([1]; 11 days): 0.21%
Impurity content RRT1.06 ([1]; 11 days): 0.05%
Impurity content RRT1.08 ([1]; 11 days): 0.21%
Impurity content RRT1.15 ([1]; 11 days): 0.03%
Total impurities ([1]; 11 days): 0.94%
Impurity content RRT0.55 ([1]; 32 days): 0.04%
Impurity content RRT0.66 ([1]; 32 days): 0.21%
Impurity content RRT0.71 ([1]; 32 days): 0.16%
Impurity content RRT0.94 ([1]; 32 days): 0.04%
Impurity content RRT1.02 ([1]; 32 days): 0.20%
Impurity content RRT1.06 ([1]; 32 days): 0.04%
Impurity content RRT1.08 ([1]; 32 days): 0.20%
Impurity content RRT1.15 ([1]; 32 days): 0.05%
Total impurities ([1]; 32 days): 0.95%
Increase of impurity RRT0.66 content ([2]; 4500 lx±500 lx, 32 days): 0.04%
Increase of impurity RRT0.71 content ([2]; 4500 lx±500 lx, 32 days): not increased
Increase of impurity RRT1.02 content ([2]; 4500 lx±500 lx, 32 days): not increased
Increase of impurity RRT1.08 content ([2]; 4500 lx±500 lx, 32 days): 0.08%
Increase of total impurities ([2]; 4500 lx±500 lx, 32 days): 0.13%
Impurity content RRT0.55 ([2]; 4500lx±500lx, open, 0 day): 0.04%
Impurity content RRT0.66 ([2]; 4500lx±500lx, open, 0 day): 0.21%
Impurity content RRT0.71 ([2]; 4500lx±500lx, open, 0 day): 0.14%
Impurity content RRT0.94 ([2]; 4500lx±500lx, open, 0 day): 0.03%
Impurity content RRT1.02 ([2]; 4500lx±500lx, open, 0 day): 0.21%
Impurity content RRT1.06 ([2]; 4500lx±500lx, open, 0 day): 0.07%
Impurity content RRT1.08 ([2]; 4500lx±500lx, open, 0 day): 0.17%
Impurity content RRT1.15 ([2]; 4500lx±500lx, open, 0 day): 0.03%
Total impurities ([2]; 4500lx±500lx, open, 0 day): 0.89%
Impurity content RRT0.55 ([2]; 4500lx±500lx, open, 5 days): 0.03%
Impurity content RRT0.66 ([2]; 4500lx±500lx, open, 5 days): 0.22%
Impurity content RRT0.71 ([2]; 4500lx±500lx, open, 5 days): 0.14%
Impurity content RRT0.94 ([2]; 4500lx±500lx, open, 5 days): 0.02%
Impurity content RRT1.02 ([2]; 4500lx±500lx, open, 5 days): 0.22%
Impurity content RRT1.06 ([2]; 4500lx±500lx, open, 5 days): 0.05%
Impurity content RRT1.08 ([2]; 4500lx±500lx, open, 5 days): 0.20%
Impurity content RRT1.15 ([2]; 4500lx±500lx, open, 5 days): 0.04%
Total impurities ([2]; 4500lx±500lx, open, 5 days): 0.92%
Impurity content RRT0.55 ([2]; 4500lx±500lx, open, 11 days): 0.04%
Impurity content RRT0.66 ([2]; 4500lx±500lx, open, 11 days): 0.22%
Impurity content RRT0.71 ([2]; 4500lx±500lx, open, 11 days): 0.14%
Impurity content RRT0.92 ([2]; 4500lx±500lx, open, 11 days): 0.03%
Impurity content RRT0.94 ([2]; 4500lx±500lx, open, 11 days): 0.03%
Impurity content RRT1.02 ([2]; 4500lx±500lx, open, 11 days): 0.20%
Impurity content RRT1.06 ([2]; 4500lx±500lx, open, 11 days): 0.04%
Impurity content RRT1.08 ([2]; 4500lx±500lx, open, 11 days): 0.24%
Impurity content RRT1.15 ([2]; 4500lx±500lx, open, 11 days): 0.03%
Total impurities ([2]; 4500lx±500lx, open, 11 days): 0.98%
Impurity content RRT0.55 ([2]; 4500lx±500lx, open, 32 days): 0.03%
Impurity content RRT0.66 ([2]; 4500lx±500lx, open, 32 days): 0.25%
Impurity content RRT0.71 ([2]; 4500lx±500lx, open, 32 days): 0.13%
Impurity content RRT0.94 ([2]; 4500lx±500lx, open, 32 days): 0.08%
Impurity content RRT1.02 ([2]; 4500lx±500lx, open, 32 days): 0.20%
Impurity content RRT1.06 ([2]; 4500lx±500lx, open, 32 days): 0.04%
Impurity content RRT1.08 ([2]; 4500lx±500lx, open, 32 days): 0.25%
Impurity content RRT1.15 ([2]; 4500lx±500lx, open, 32 days): 0.04%
Total impurities ([2]; 4500lx±500lx, open, 32 days): 1.02%
Increase of impurity RRT1.02 content ([3]; 32 days): no essential changes
Increase of impurity RRT1.08 content ([3]; 32 days): 0.04%
Increase of total impurities ([3]; 32 days): 0.05%
Impurity content RRT0.55 ([3]; 0 day): 0.04%
Impurity content RRT0.66 ([3]; 0 day): 0.21%
Impurity content RRT0.71 ([3]; 0 day): 0.14%
Impurity content RRT0.94 ([3]; 0 day): 0.03%
Impurity content RRT1.02 ([3]; 0 day): 0.21%
Impurity content RRT1.06 ([3]; 0 day): 0.07%
Impurity content RRT1.08 ([3]; 0 day): 0.17%
Impurity content RRT1.15 ([3]; 0 day): 0.03%
Total impurities ([3]; 0 day): 0.89%
Impurity content RRT0.55 ([3]; 5 days): 0.03%
Impurity content RRT0.66 ([3]; 5 days): 0.21%
Impurity content RRT0.71 ([3]; 5 days): 0.15%
Impurity content RRT0.94 ([3]; 5 days): 0.03%
Impurity content RRT1.02 ([3]; 5 days): 0.21%
Impurity content RRT1.06 ([3]; 5 days): 0.05%
Impurity content RRT1.08 ([3]; 5 days): 0.18%
Impurity content RRT1.15 ([3]; 5 days): 0.03%
Total impurities ([3]; 5 days): 0.89%
Impurity content RRT0.55 ([3]; 11 days): 0.04%
Impurity content RRT0.66 ([3]; 11 days): 0.21%
Impurity content RRT0.71 ([3]; 11 days): 0.14%
Impurity content RRT0.94 ([3]; 11 days): 0.02%
Impurity content RRT1.02 ([3]; 11 days): 0.20%
Impurity content RRT1.06 ([3]; 11 days): 0.05%
Impurity content RRT1.08 ([3]; 11 days): 0.21%
Impurity content RRT1.15 ([3]; 11 days): 0.03%
Total impurities ([3]; 11 days): 0.89%
Impurity content RRT0.55 ([3]; 32 days): 0.04%
Impurity content RRT0.66 ([3]; 32 days): 0.22%
Impurity content RRT0.71 ([3]; 32 days): 0.15%
Impurity content RRT0.94 ([3]; 32 days): 0.05%
Impurity content RRT1.02 ([3]; 32 days): 0.19%
Impurity content RRT1.06 ([3]; 32 days): 0.04%
Impurity content RRT1.08 ([3]; 32 days): 0.21%
Impurity content RRT1.15 ([3]; 32 days): 0.04%
Total impurities ([3]; 32 days): 0.94%
angle of repose [4]: 37.9 °
Hygroscopicity (conclusion) [5]: had hygroscopicity
DVS weight loss ([5]; humidity 20% or less): up to 3%
DVS weight loss ([5]; humidity increased from 0% to 30%): approximately 2%
DVS weight gain ([5]; humidity increased from 90% to 100%): approximately 4%
DVS weight loss ([5]; humidity reduced from 100% to 90%): approximately 2%
